Measured values reported in patent US12138256B2, “Treatment of cardiopulmonary disorders” (Bayer Aktiengesellschaft, priority 2021, dated 2024).
Several values for one entry are separate records, joined by “and”; a condition that tells them apart may be missing. Equal entries are not always repeated.

Columns and labels:
[1] = system: guinea pig trachea pre-contracted with carbachol; assay: Bronchorelaxation in vitro: carbachol pre-contracted guinea pig trachea rings, wash-out recovery factor (C-3.1)
Description: Male Dunkin Hartley guinea pig were euthanized using carbon dioxide. The primary bronchus was removed and placed in ice-cold Krebs-Henseleit buffer of following composition (in mmol/l): […] For recording of isometric tension, the bronchial rings were mounted between two hooks. One hook was connected to a force transducer the other was moveable and allowed a precise adjustment of resting tension at 1.5 g. During the equilibration period of 60 min the tissue was washed every 20 min with buffer. […] After 30 min, a cumulative dose response curve of the test compound was constructed. Every concentration was incubated till the response was stable. […] The relaxation was expressed as percentage tension. […] The recovery factor was calculated as a ratio of bronchodilation 1 h after compound application and bronchodilation 1 h after removal (wash out) of test compound. […] Relaxation via Cinaciguat (comparative example 1) and Riociguat (comparative example 2) reached a steady state within the 1 h incubation time. […] In contrast, relaxation induced by comparative example 11 was further progressing during the wash out period (recovery factor 1.41).

[2] = Storage stability of pseudopolymorphic forms (XRPD after storage); type: physicochemical; conditions: monohydrate II as starting material; one, three and six months; container, temperature, relative humidity per example
[3] = system: thromboxane analog U46619 induced PAH in minipigs; assay: Haemodynamics (PAP, BP) in the anesthetized thromboxane challenged PAH minipig after inhaled (nebulized) application (C-2.1); type: in vivo, Göttingen minipig; conditions: inhaled; for BP % change vs. baseline / PAP % change vs. baseline: 100 μg/kg nominal dose, individual animals
Description: Experiments were carried out in anesthetized Göttingen minipigs, anesthetized rats and conscious, telemetrically instrumented dogs. Acute pulmonary hypertension was induced for example by infusion of a thromboxane A2 analogon, by acute hypoxia treatment or hypoxia treatment over a number of weeks and/or by administration of monocrotaline. Test substances were applied via nebulization using the Nebutec® or Aeroneb® Pro nebulizer system, and/or by means of powder and/or solution applicators for experimental intratracheal administration (Liquid MicroSprayer®, Dry Powder Insufflator™, MicroSprayer®, Penn-Century Inc., Wyndmoor, PA, USA) or after solid nebulization inserted into the inspiration arm of the ventilation. Compounds were employed as solids or solutions depending on the molecular structure and the technical possibility depending on the experiment. The haemodynamic signals were recorded and evaluated by means of pressure transducers/amplifiers (Combitransducer B. Braun, Melsungen, Germany or CardioMEMS Inc., Atlanta, GA, USA) and Ponemah® or CardioMems® as data aquisition software. After long-term experiments (for example monocrotaline rat), it is also possible to carry out a histological evaluation.
Healthy Gottingen Minipigs® Ellegaard (Ellegaard, Denmark) of both sexes and having a weight of 2-6 kg were used. The animals were sedated by i.m. administration of about 25 mg/kg ketamine and about 10 mg/kg azaperone. Anaesthesia was initiated by i.v. administration of about 2 mg/kg ketamine and about 0.3 mg/kg midazolam. Maintenance of anaesthesia was by i.v. administration of about 7.5-30 mg/kg/h ketamine and about 1-4 mg/kg/h midazolam (rate of infusion 1-4 ml/kg/h) and about 150 μg/kg/h pancuronium bromide (for example Pancuronium-Actavis). After intubation, the animals were ventilated by the ventilator at a constant respiratory volume (10-12 ml/kg, 35 breaths/min; Avea®, Viasys Healthcare, USA, or Engstrom Carestation, GE Healthcare, Freiburg, Germany) such that an end-tidal CO2 concentration of about 5% was achieved. Ventilation was performed with room air, enriched with about 40% oxygen (normoxia). For the measurement of the haemodynamic parameters such as pulmonary arterial pressure (PAP), blood pressure (BP) and heart rate (HR), catheters were inserted into the carotid artery to measure the blood pressure, and a Swan-Ganz® catheter was introduced in a flow-directed manner via the jugular vein into the pulmonary artery. The haemodynamic signals were recorded and evaluated by means of pressure transducers (Combitransducer, B. Braun, Melsungen, Germany)/amplifiers and Ponemah® as data aquisition software.
After the instruments have been placed into the animals, continuous infusion of a thromboxane A2 analog was initiated to increase the pulmonary arterial pressure. […] D0400, or Cayman Chemical Company, cat. no. 16440), dissolved in physiological saline, were infused to achieve an increase of the mean pulmonary arterial pressure to values of over 25 mmHg. 30 minutes after the start of the infusion, a plateau was reached, and the experiment was started.
The test substances were administered as i.v. infusion or by inhalation. For the preparation of the solution for inhalation, the following procedure was adopted: For an animal having a weight of 4 kg, to prepare the stock solution (300 μg/kg), 1.2 mg of the test compound were weighed out and dissolved in a total volume of 3 ml (1% DMSO, 99% 0.2% strength citric acid solution, 1 N aqueous sodium hydroxide solution to adjust the pH to 8). The solution was then diluted to the concentration employed using 0.2% strength citric acid which had been adjusted to pH 8 beforehand with aqueous sodium hydroxide solution. In each test, 3 ml of the solution of test compound per 4 kg animal were nebulized in the inhalation arm of the respiratory circuit using the Aeroneb® Pro nebulizer system. The mean nebulization time was about 7 min from the start of the nebulization.

[4] = Thermal stability of the solid (90° C., 7 days, HPLC peak areas); type: physicochemical
Description: 0.3 mg of the test compound, e.g. comparative example 11 were solved in 0.1 ml dimethylsulfoxide and 0.4 ml acetonitrile. Then 1.0 ml water was added. For complete dissolution the HPLC vial was shaken and sonicated. This solution was immediately analyzed by HPLC (reference at t0). 0.3 mg of the test compound was weighed into another HPLC vial. The vial was capped and stored for 7 days in a heating block at 90° C.
After this time the vial was decapped and 0.1 ml dimethylsulfoxide and 0.4 ml acetonitrile were added to the stressed compound. Then 1.0 ml water was added. For complete dissolution the HPLC vial was shaken and sonicated. The sample was analyzed by HPLC (sample after 1 week). The peak areas in percentage are used for quantification.

Molecule: COC(=O)N(C)c1c(N)nc(-c2nn(Cc3ccccc3F)c3ncccc23)nc1N [comparative example 2, Riociguat]
- Relaxation (%) (timepoint at 70 min) Mean ([1]; 1 μmol/l): 29.1%
- Relaxation (%) (timepoint at 130 min) Mean ([1]; 1 μmol/l): 85.1%

Molecule: O=C(O)CCCCN(CCc1ccccc1OCc1ccc(CCc2ccccc2)cc1)Cc1ccc(C(=O)O)cc1 [comparative example 1, Cinaciguat]
- Relaxation (%) (timepoint at 70 min) Mean ([1]; 1 nmol/l): 60.4%
- Relaxation (%) (timepoint at 130 min) Mean ([1]; 1 nmol/l): 66.2%

Molecule: O.O=C(O)c1ccc(CCN(CCc2ccccc2OCc2ccc(-c3ccc(C(F)(F)F)cc3)cc2Cl)[C@H]2CCCc3nc(C(=O)O)ccc32)cc1 [7d]
- Result (form after storage) [2]: monohydrate I

Molecule: Ethyl 5-{[2-(2-{[3-chloro-4′-(trifluoromethyl)biphenyl-4-yl]methoxy}phenyl)ethyl]amino}-5,6,7,8-tetrahydroquinoline-2-carboxylate dihydrochloride [7a]
- Result (form after storage) [2]: monohydrate II

Molecule: Cc1ccc2oc(-c3ccc(COc4ccccc4CCN(CCCCC(=O)O)C4CCCc5nc(C(=O)O)ccc54)cc3)nc2c1 (single isomer, unassigned; (+)) [comparative example 5, (+)-5-{(4-Carboxybutyl)[2-(2-{[4-(5-methyl-1,3-benzoxazol-2-yl)benzyl]oxy}phenyl)ethyl]amino}-5,6,7,8-tetrahydroquinoline-2-carboxylic acid]
- BP % change vs. baseline ([3]; time 80 min): 100.0%
- PAP % change vs. baseline ([3]; time 80 min): 100.0%
- BP % change vs. baseline ([3]; time 90 min): 100.0%
- PAP % change vs. baseline ([3]; time 90 min): 101.5% and 99.2% and 102.0%
- BP % change vs. baseline ([3]; time 100 min): 99.1% and 97.7% and 101.8%
- PAP % change vs. baseline ([3]; time 100 min): 98.0% and 90.0% and 93.8%
- BP % change vs. baseline ([3]; time 110 min): 99.1% and 97.7% and 100.0%
- PAP % change vs. baseline ([3]; time 110 min): 91.7% and 86.4% and 79.0%
- BP % change vs. baseline ([3]; time 120 min): 99.1% and 96.6% and 97.3%
- PAP % change vs. baseline ([3]; time 120 min): 90.0% and 86.1% and 73.7%
- BP % change vs. baseline ([3]; time 130 min): 98.1% and 97.7% and 97.3%
- PAP % change vs. baseline ([3]; time 130 min): 87.6% and 88.6% and 72.9%
- BP % change vs. baseline ([3]; time 140 min): 98.1% and 98.9% and 97.3%
- PAP % change vs. baseline ([3]; time 140 min): 87.1% and 93.0% and 73.7%
- BP % change vs. baseline ([3]; time 150 min): 95.3% and 100.0% and 97.3%
- PAP % change vs. baseline ([3]; time 150 min): 87.6% and 95.0% and 75.1%
- BP % change vs. baseline ([3]; time 160 min): 96.2% and 101.1% and 98.2%
- PAP % change vs. baseline ([3]; time 160 min): 88.7% and 96.4% and 77.8%
- BP % change vs. baseline ([3]; time 170 min): 95.3% and 101.1% and 96.4%
- PAP % change vs. baseline ([3]; time 170 min): 89.8% and 97.8% and 79.2%
- BP % change vs. baseline ([3]; time 180 min): 95.3% and 101.1% and 97.3%
- PAP % change vs. baseline ([3]; time 180 min): 90.0% and 100.6% and 81.5%
- BP % change vs. baseline ([3]; time 190 min): 94.3% and 102.3% and 96.4%
- PAP % change vs. baseline ([3]; time 190 min): 90.9% and 101.9% and 81.9%
- BP % change vs. baseline ([3]; time 200 min): 92.5% and 103.4% and 95.5%
- PAP % change vs. baseline ([3]; time 200 min): 91.4% and 102.8% and 85.2%
- BP % change vs. baseline ([3]; time 210 min): 91.5% and 102.3% and 96.4%
- PAP % change vs. baseline ([3]; time 210 min): 92.7% and 104.2% and 88.1%
- BP % change vs. baseline ([3]; time 220 min): 91.5% and 103.4% and 96.4%
- PAP % change vs. baseline ([3]; time 220 min): 94.5% and 105.8% and 91.3%
- BP % change vs. baseline ([3]; time 230 min): 91.5% and 103.4% and 94.6%
- PAP % change vs. baseline ([3]; time 230 min): 95.1% and 106.1% and 93.1%
- BP % change vs. baseline ([3]; time 240 min): 90.6% and 102.3% and 94.6%
- PAP % change vs. baseline ([3]; time 240 min): 95.5% and 105.8% and 92.9%
- BP % change vs. baseline ([3]; time 250 min): 90.6% and 102.3% and 94.6%
- PAP % change vs. baseline ([3]; time 250 min): 96.5% and 105.8% and 94.3%
- BP % change vs. baseline ([3]; time 260 min): 89.6% and 101.1% and 93.8%
- PAP % change vs. baseline ([3]; time 260 min): 98.1% and 106.4% and 95.5%
- BP % change vs. baseline ([3]; time 270 min): 90.6% and 103.4% and 93.8%
- PAP % change vs. baseline ([3]; time 270 min): 98.6% and 107.5% and 95.9%
- BP % change vs. baseline ([3]; time 280 min): 89.6% and 100.0% and 93.8%
- PAP % change vs. baseline ([3]; time 280 min): 98.6% and 106.4% and 97.2%
- BP % change vs. baseline ([3]; time 290 min): 88.7% and 102.3% and 92.9%
- PAP % change vs. baseline ([3]; time 290 min): 99.6% and 105.8% and 98.4%
- BP % change vs. baseline ([3]; time 300 min): 89.6% and 100.0% and 92.0%
- PAP % change vs. baseline ([3]; time 300 min): 100.1% and 107.0% and 98.6%
- BP % change vs. baseline ([3]; time 310 min): 89.6% and 100.0% and 91.1%
- PAP % change vs. baseline ([3]; time 310 min): 101.7% and 107.5% and 99.6%
- BP % change vs. baseline ([3]; time 320 min): 89.6% and 105.7% and 91.1%
- PAP % change vs. baseline ([3]; time 320 min): 102.8% and 109.5% and 100.1%
- BP % change vs. baseline ([3]; time 330 min): 89.6% and 98.9% and 89.3%
- PAP % change vs. baseline ([3]; time 330 min): 102.9% and 106.1% and 99.3%
- duration of action ([3]; nominal dose of 100 μg/kg): only a moderate duration of action
- lung selectivity ([3]; nominal dose of 100 μg/kg): good lung selectivity
- thermal stability [4]: limited thermal stability
